From PubChem BioAssay AID292 (DTP/NCI, 2004)
Several values for one entry are separate records, joined by “and”; a condition that tells them apart may be missing. Identical values can stand only once. Inconclusive results and toxic doses are left out.

Tested on: B6C3F1 mice, ip Sarcoma M5076, median survival T/C
Test: NCI In Vivo Anticancer Drug Screen. Data for tumor model Sarcoma M5076 (intraperitoneal) in B6C3F1 mice
Conditions: endpoint: median survival time, schedule: Q04DX004 (ip), higher = longer survival
Method in brief: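 Antitumour effect is judged in tumour-bearing mice by comparing survival after compound dosing against vehicle-only animals, reported as T/C.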

[1] = dose: 6.25 mg/kg/injection, vehicle: saline with Tween-80
[2] = dose: 12.5 mg/kg/injection, vehicle: saline with Tween-80
[3] = dose: 18.75 mg/kg/injection, vehicle: saline with Tween-80
[4] = dose: 25.0 mg/kg/injection, vehicle: saline with Tween-80
[5] = dose: 37.5 mg/kg/injection, vehicle: saline with Tween-80
[6] = dose: 50.0 mg/kg/injection, vehicle: saline with Tween-80
[7] = dose: 75.0 mg/kg/injection, vehicle: saline with Tween-80
[8] = dose: 100.0 mg/kg/injection, vehicle: saline with Tween-80
[9] = dose: 150.0 mg/kg/injection, vehicle: saline with Tween-80
[10] = dose: 300.0 mg/kg/injection, vehicle: saline with Tween-80
[11] = dose: 25.0 mg/kg/injection, vehicle: suspension in saline
[12] = dose: 50.0 mg/kg/injection, vehicle: suspension in saline
[13] = dose: 200.0 mg/kg/injection, vehicle: suspension in saline
[14] = dose: 50.0 mg/kg/injection, vehicle: Klucel (hydroxypropylcellulose) (HPC)
[15] = dose: 100.0 mg/kg/injection, vehicle: Klucel (hydroxypropylcellulose) (HPC)
[16] = dose: 200.0 mg/kg/injection, vehicle: Klucel (hydroxypropylcellulose) (HPC)
[17] = dose: 400.0 mg/kg/injection, vehicle: Klucel (hydroxypropylcellulose) (HPC)
[18] = dose: 200.0 mg/kg/injection, vehicle: saline with Tween-80
[19] = dose: 400.0 mg/kg/injection, vehicle: saline with Tween-80
[20] = dose: 400.0 mg/kg/injection, vehicle: suspension in saline

O=C1C=C(N2CC2)C(=O)C(N2CC2)=C1N1CC1
T/C (dose: 1.56 micrograms/kg/injection, vehicle: saline): 99 % of control
T/C (dose: 3.12 micrograms/kg/injection, vehicle: saline): 103 % of control
T/C (dose: 6.25 micrograms/kg/injection, vehicle: saline): 111 % of control
T/C (dose: 12.5 micrograms/kg/injection, vehicle: saline): 111 % of control
T/C (dose: 25.0 micrograms/kg/injection, vehicle: saline): 114 % of control

CS(=O)(=O)OCCCCOS(C)(=O)=O
T/C [1]: 100 % of control
T/C [2]: 104 % of control

O=S1(=O)C(c2cccc(F)c2)=C(O)c2cc3ccccc3nc21
T/C (dose: 26.57 mg/kg/injection, vehicle: saline with Tween-80): 100 % of control
T/C (dose: 53.13 mg/kg/injection, vehicle: saline with Tween-80): 92 % of control
T/C (dose: 106.25 mg/kg/injection, vehicle: saline with Tween-80): 96 % of control
T/C (dose: 212.5 mg/kg/injection, vehicle: saline with Tween-80): 92 % of control

CCN(CC)Cc1cc2[nH]c3c4ccc(Cl)cc4ncc3c2cc1OC (tested in a mixture with another compound)
T/C [3]: 104 % of control
T/C [4]: 117 % of control
T/C [5]: 112 % of control
T/C [6]: 110 % of control
T/C [7]: 99 % of control
T/C [8]: 105 % of control

Cc1nc2c(cnn2C)cc1CCc1ccccc1
T/C [3]: 99 % of control
T/C [5]: 101 % of control
T/C [7]: 99 % of control
T/C [9]: 99 % of control
T/C [10]: 90 % of control

CNC(=O)OCc1nc(SC)n(C)c1COC(=O)NC
T/C (dose: 25.0 mg/kg/injection, vehicle: saline): 122 % of control
T/C [11]: 119 % of control
T/C (dose: 50.0 mg/kg/injection, vehicle: saline): 119 % of control
T/C [12]: 122 % of control
T/C (dose: 100.0 mg/kg/injection, vehicle: saline): 151 % of control
T/C (dose: 200.0 mg/kg/injection, vehicle: saline): 184 % of control
T/C [13]: 193 % of control

CNCCN=c1ccc2c3c1c(O)c1c(O)ccc(=O)c1c3[nH]n2CCNCCO
T/C (dose: 0.75 mg/kg/injection, vehicle: water): 156 % of control
T/C (dose: 1.5 mg/kg/injection, vehicle: water): 162 % of control
T/C (dose: 3.0 mg/kg/injection, vehicle: water): 204 % of control
T/C (dose: 6.25 mg/kg/injection, vehicle: water): 245 % of control
T/C (dose: 12.5 mg/kg/injection, vehicle: water): 90 % of control

COc1ccccc1C1C(C#N)C(=O)NC(=O)C1C#N (configuration not stated)
T/C [14]: 100 % of control
T/C [15]: 100 % of control
T/C [16]: 95 % of control
T/C [17]: 102 % of control

Cc1ccc(-c2nnc3cc(C)n4nnnc4n23)cc1
T/C (dose: 17.5 mg/kg/injection, vehicle: Klucel (hydroxypropylcellulose) (HPC)): 97 % of control
T/C (dose: 35.0 mg/kg/injection, vehicle: Klucel (hydroxypropylcellulose) (HPC)): 99 % of control
T/C (dose: 70.0 mg/kg/injection, vehicle: Klucel (hydroxypropylcellulose) (HPC)): 99 % of control
T/C (dose: 140.0 mg/kg/injection, vehicle: Klucel (hydroxypropylcellulose) (HPC)): 101 % of control
T/C (dose: 280.0 mg/kg/injection, vehicle: Klucel (hydroxypropylcellulose) (HPC)): 97 % of control

CN1CCN(c2ccc3nc(-c4ccc5nc(-c6ccc(O)cc6)[nH]c5c4)[nH]c3c2)CC1
T/C (dose: 28.0 mg/kg/injection, vehicle: saline): 96 % of control
T/C (dose: 56.0 mg/kg/injection, vehicle: saline): 92 % of control
T/C (dose: 112.0 mg/kg/injection, vehicle: saline): 100 % of control
T/C (dose: 225.0 mg/kg/injection, vehicle: saline): 86 % of control

O=c1c(O)c(-c2cc(O)c(O)c(O)c2)oc2cc(O)cc(O)c12
T/C [7]: 111 % of control
T/C [9]: 111 % of control
T/C [10]: 101 % of control
T/C (dose: 600.0 mg/kg/injection, vehicle: saline with Tween-80): 99 % of control

COc1nc2cc3c(cc2n2cccc12)oc1ccccc13
T/C (dose: 0.38 mg/kg/injection, vehicle: saline with Tween-80): 92 % of control
T/C (dose: 0.75 mg/kg/injection, vehicle: saline with Tween-80): 89 % of control

CCOC(=O)C1=C(C)O/C(=C/c2cccc(Cl)c2)C1=O
T/C [8]: 99 % of control
T/C [18]: 100 % of control
T/C [19]: 93 % of control

CC(=O)[O][Pb]([O]C(C)=O)([c]1ccccc1)[c]1ccccc1
T/C [14]: 100 % of control
T/C [15]: 104 % of control
T/C [16]: 99 % of control
T/C [17]: 97 % of control
T/C (dose: 800.0 mg/kg/injection, vehicle: Klucel (hydroxypropylcellulose) (HPC)): 114 % of control

Cc1ccc(C(=O)[O][Hg][CH2]C2COC([CH2][Hg][O]C(=O)c3ccc(C)cc3)CO2)cc1 (configuration not stated)
T/C [1]: 99 % of control
T/C [2]: 88 % of control
T/C [4]: 88 % of control

Nc1cc2c(cc1Br)-c1c(C(=O)O)cccc1C2O (configuration not stated)
T/C [6]: 96 % of control
T/C (dose: 50.0 mg/kg/injection, vehicle: sodium bicarbonate): 94 % of control
T/C [8]: 97 % of control
T/C (dose: 100.0 mg/kg/injection, vehicle: sodium bicarbonate): 100 % of control
T/C [18]: 101 % of control
T/C (dose: 200.0 mg/kg/injection, vehicle: sodium bicarbonate): 109 % of control
T/C [19]: 109 % of control
T/C (dose: 400.0 mg/kg/injection, vehicle: sodium bicarbonate): 107 % of control
T/C (dose: 683.0 mg/kg/injection, vehicle: saline with Tween-80): 103 % of control
T/C (dose: 800.0 mg/kg/injection, vehicle: sodium bicarbonate): 118 % of control

CC(=O)NCCSSCc1ccccc1CS(=O)O
T/C [11]: 96 % of control
T/C [12]: 100 % of control
T/C (dose: 100.0 mg/kg/injection, vehicle: suspension in saline): 100 % of control
T/C [13]: 101 % of control
T/C [20]: 99 % of control

CC(=O)C[n+]1ccccc1Sc1ccc(Cl)cc1
T/C [4]: 98 % of control
T/C [6]: 86 % of control
T/C [8]: 88 % of control

Clc1ccc(CC(Cn2ccnc2)c2ccccc2Cl)cc1 (configuration not stated)
T/C (dose: 15.63 mg/kg/injection, vehicle: saline with Tween-80): 111 % of control
T/C (dose: 31.25 mg/kg/injection, vehicle: saline with Tween-80): 102 % of control
T/C (dose: 62.5 mg/kg/injection, vehicle: saline with Tween-80): 96 % of control
T/C (dose: 125.0 mg/kg/injection, vehicle: saline with Tween-80): 87 % of control

c1nnc(NCNc2nncs2)s1
T/C [11]: 113 % of control
T/C [12]: 122 % of control
T/C (dose: 144.0 mg/kg/injection, vehicle: suspension in saline): 154 % of control
T/C [13]: 123 % of control
T/C (dose: 240.0 mg/kg/injection, vehicle: suspension in saline): 164 % of control
T/C [20]: 168 % of control and 177 % of control

COC(=O)c1ccc(OCc2nc3ccccc3[nH]2)cc1
T/C [4]: 95 % of control
T/C [6]: 100 % of control
T/C [8]: 95 % of control
T/C [18]: 89 % of control
T/C [19]: 90 % of control
